Source: PubChem BioAssay AID274 (DTP/NCI, 2004)
Where “and” joins values, the source holds several entries; their conditions need not be identical. Identical values can stand only once. Toxic doses and inconclusive results are not listed.

System: BDF1 mice, Lewis lung carcinoma iv, survival T/C
Experiment: NCI In Vivo Anticancer Drug Screen. Data for tumor model Lewis Lung Carcinoma (intravenous) in B6D2F1 (BDF1) mice
Details: endpoint: median survival time, higher = longer survival
Protocol: The antitumor activity of compounds was measured in mice bearing transplantable tumors. Survival or tumor size were measured and the results are expressed as the measurement made in the treated group (T) divided by the measurement made in the vehicle treated control group (C). The tumor model used in this assay is Lewis Lung Carcinoma (intravenous) in B6D2F1 (BDF1) mice

[1] = dose: 12.5 mg/kg/injection, schedule: Q01DX009 (ip), vehicle: saline
[2] = dose: 25.0 mg/kg/injection, schedule: Q01DX009 (ip), vehicle: saline
[3] = dose: 3.12 mg/kg/injection, schedule: Q01DX009 (ip), vehicle: Klucel (hydroxypropylcellulose) (HPC)
[4] = dose: 6.25 mg/kg/injection, schedule: Q01DX009 (ip), vehicle: Klucel (hydroxypropylcellulose) (HPC)
[5] = dose: 12.5 mg/kg/injection, schedule: Q01DX009 (ip), vehicle: Klucel (hydroxypropylcellulose) (HPC)
[6] = dose: 12.5 mg/kg/injection, schedule: Q01DX009 (ip), vehicle: saline with Tween-80
[7] = dose: 25.0 mg/kg/injection, schedule: Q01DX009 (ip), vehicle: saline with Tween-80
[8] = dose: 50.0 mg/kg/injection, schedule: Q01DX009 (ip), vehicle: saline with Tween-80
[9] = dose: 100.0 mg/kg/injection, schedule: Q01DX009 (ip), vehicle: saline with Tween-80
[10] = dose: 200.0 mg/kg/injection, schedule: Q01DX009 (ip), vehicle: saline with Tween-80
[11] = dose: 25.0 mg/kg/injection, schedule: Q01DX009 (ip), vehicle: Klucel (hydroxypropylcellulose) (HPC)
[12] = dose: 50.0 mg/kg/injection, schedule: Q01DX009 (ip), vehicle: Klucel (hydroxypropylcellulose) (HPC)
[13] = dose: 6.25 mg/kg/injection, schedule: Q01DX009 (ip), vehicle: saline

What does the source list for `CCC1(O)CC2CN(CCc3c([nH]c4ccccc34)C(C(=O)OC)(c3cc4c(cc3OC)N(C)C3C(O)(C(=O)NCCSSCCNC(=O)C5(O)C(O)C6(CC)C=CCN7CCC8(c9cc(C%10(C(=O)OC)CC%11CN(CCc%12c%10[nH]c%10ccccc%12%10)CC(O)(CC)C%11)c(OC)cc9N(C)C58)C76)C(O)C5(CC)C=CCN6CCC43C65)C2)C1` (stereo unspecified)?
T/C (dose: 0.39 mg/kg/injection, schedule: Q01DX009 (ip), vehicle: saline): 93 % of control; T/C (dose: 0.65 mg/kg/injection, schedule: Q01DX009 (ip), vehicle: saline): 93 % of control

`CNc1nc(N(C)C)nc(N(C)C)n1` was tested. Which T/C [1] did it give?
Its T/C is 96 % of control.

And the T/C [2]?
Its T/C is 98 % of control.

With `CC(=O)OCC(=O)[C@@]12OC(C)(C)O[C@@H]1C[C@H]1[C@@H]3CC(C=O)=C4C=C(OCCCl)CC[C@]4(C)[C@@]3(F)[C@@H](O)C[C@@]12C` as the compound, how does the T/C (dose: 1.56 mg/kg/injection, schedule: Q01DX009 (ip), vehicle: Klucel (hydroxypropylcellulose) (HPC)) read?
Its T/C is 104 % of control.

And the T/C [3]?
The T/C was 100 % of control.

What about the T/C (dose: 3.13 mg/kg/injection, schedule: Q01DX009 (ip), vehicle: Klucel (hydroxypropylcellulose) (HPC)) of the same compound?
The T/C was 110 % of control.

And the T/C [4]?
Its T/C is 102 % of control and 112 % of control.

What about the T/C [5] of the same compound?
The T/C was 104 % of control and 121 % of control.

With `O=C(CCN1CC1)OCCOC(=O)CCN1CC1` as the compound, how does the T/C (dose: 1.5 mg/kg/injection, schedule: Q01DX009 (ip), vehicle: saline) read?
Its T/C is 111 % of control.

And the T/C (dose: 3.0 mg/kg/injection, schedule: Q01DX009 (ip), vehicle: saline)?
The T/C was 107 % of control.

And the T/C (dose: 6.0 mg/kg/injection, schedule: Q01DX009 (ip), vehicle: saline)?
Its T/C is 99 % of control.

What about the T/C (dose: 24.0 mg/kg/injection, schedule: Q01DX009 (ip), vehicle: saline) of the same compound?
Its T/C is 107 % of control.

How did the T/C [6] turn out when `N#CCCSC(=S)C1CCCC1=N` (stereo unspecified) was run?
Its T/C is 105 % of control.

And the T/C [7]?
Its T/C is 101 % of control.

And the T/C [8]?
The T/C was 106 % of control.

And the T/C [9]?
Its T/C is 93 % of control.

What about the T/C [10] of the same compound?
The T/C was 98 % of control.

What about the T/C (dose: 400.0 mg/kg/injection, schedule: Q01DX009 (ip), vehicle: saline with Tween-80) of the same compound?
Its T/C is 106 % of control.

With `C1CCC2OCCOCCOC3CCCCC3OCCOCCOC2C1` (stereo unspecified) as the compound, how does the T/C [3] read?
Its T/C is 92 % of control.

And the T/C [4]?
The T/C was 87 % of control.

What about the T/C [5] of the same compound?
The T/C was 101 % of control.

What about the T/C [11] of the same compound?
The T/C was 93 % of control.

What about the T/C [12] of the same compound?
The T/C was 91 % of control.

Which T/C (dose: 1.0 mg/kg/injection, schedule: Q01DX005 (ip), vehicle: saline with Tween-80) does the source give for `O=C1c2c(O)ccc(O)c2C(=O)c2c(NCCNCCO)ccc(NCCNCCO)c21` here?
The T/C was 276 % of control.

What about the T/C (dose: 2.0 mg/kg/injection, schedule: Q01DX005 (ip), vehicle: saline with Tween-80) of the same compound?
Its T/C is 115 % of control.

What about the T/C (dose: 4.0 mg/kg/injection, schedule: Q01DX005 (ip), vehicle: saline with Tween-80) of the same compound?
Its T/C is 116 % of control.

How did the T/C [7] turn out when `COc1cc2ccnc(C=O)c2cc1OC` was run?
The T/C was 107 % of control.

And the T/C [8]?
Its T/C is 102 % of control.

What about the T/C [9] of the same compound?
Its T/C is 102 % of control.

What about the T/C [10] of the same compound?
Its T/C is 108 % of control.

With `Cc1c[nH]c(=O)[nH]c1=O` as the compound, how does the T/C (dose: 32.0 mg/kg/injection, schedule: Q01DX009 (ip), vehicle: Klucel (hydroxypropylcellulose) (HPC)) read?
The T/C was 104 % of control.

And the T/C (dose: 64.0 mg/kg/injection, schedule: Q01DX009 (ip), vehicle: Klucel (hydroxypropylcellulose) (HPC))?
The T/C was 114 % of control.

What about the T/C (dose: 128.0 mg/kg/injection, schedule: Q01DX009 (ip), vehicle: Klucel (hydroxypropylcellulose) (HPC)) of the same compound?
The T/C was 93 % of control.

And the T/C (dose: 256.0 mg/kg/injection, schedule: Q01DX009 (ip), vehicle: Klucel (hydroxypropylcellulose) (HPC))?
Its T/C is 101 % of control.

What about the T/C (dose: 512.0 mg/kg/injection, schedule: Q01DX009 (ip), vehicle: Klucel (hydroxypropylcellulose) (HPC)) of the same compound?
The T/C was 92 % of control.

What does the source list for `COc1cc2cc(c1Cl)N(C)C(=O)C[C@H](OC(=O)[C@H](C)N(C)C(C)=O)[C@]1(C)O[C@H]1[C@H](C)[C@@H]1C[C@@](O)(NC(=O)O1)[C@H](OC)C=C/C=C(\C)C2`?
T/C (dose: 54.0 micrograms/kg/injection, schedule: Q04DX003 (ip), vehicle: water): 94 % of control; T/C (dose: 90.0 micrograms/kg/injection, schedule: Q04DX003 (ip), vehicle: water): 94 % of control; T/C (dose: 150.0 micrograms/kg/injection, schedule: Q04DX003 (ip), vehicle: water): 90 % of control

How did the T/C (dose: 1.0 mg/kg/injection, schedule: Q01DX009 (ip), vehicle: saline) turn out when `CC1OC(O[C@H]2/C=C/C=C/C=C/C=C/C=C/C=C/C=C/[C@H](C)[C@@H](O)[C@@H](C)[C@H](C)OC(=O)C[C@H](O)C[C@H](O)CC[C@@H](O)[C@H](O)C[C@H](O)C[C@]3(O)C[C@H](O)[C@@H](C(=O)O)[C@H](C2)O3)C(O)C(N)C1O` (stereo partly specified) was run?
The T/C was 105 % of control.

What about the T/C (dose: 2.0 mg/kg/injection, schedule: Q01DX009 (ip), vehicle: saline) of the same compound?
The T/C was 109 % of control.

And the T/C (dose: 8.0 mg/kg/injection, schedule: Q01DX009 (ip), vehicle: saline)?
The T/C was 109 % of control.

And the T/C (dose: 16.0 mg/kg/injection, schedule: Q01DX009 (ip), vehicle: saline)?
Its T/C is 124 % of control.

What does the source list for `OCC1OC(n2cnc3cc(Cl)c(Cl)cc32)C(O)C1O` (stereo unspecified)?
T/C (dose: 6.25 mg/kg/injection, schedule: Q01DX009 (ip), vehicle: saline with Tween-80): 96 % of control; T/C [6]: 94 % of control; T/C [7]: 110 % of control; T/C [8]: 110 % of control; T/C [9]: 100 % of control; T/C [10]: 90 % of control

With `O=C(Nc1ccc(N=C=S)cc1Cl)c1cc(Cl)cc(Cl)c1O` as the compound, how does the T/C [4] read?
Its T/C is 97 % of control.

What about the T/C [5] of the same compound?
The T/C was 97 % of control.

What about the T/C [11] of the same compound?
Its T/C is 105 % of control.

What about the T/C [12] of the same compound?
The T/C was 116 % of control.

Which results are given for `ClC1(c2ccccc2)c2ccc(Br)cc2-c2cc(Br)ccc21`?
T/C [7]: 102 % of control; T/C [8]: 105 % of control; T/C [9]: 110 % of control

With `C[CH2][Sn]([CH2]C)([O]S(C)(=O)=O)[O]S(C)(=O)=O` as the compound, how does the T/C (dose: 0.78 mg/kg/injection, schedule: Q01DX009 (ip), vehicle: saline) read?
Its T/C is 98 % of control.

And the T/C (dose: 1.56 mg/kg/injection, schedule: Q01DX009 (ip), vehicle: saline)?
Its T/C is 105 % of control.

What about the T/C (dose: 3.12 mg/kg/injection, schedule: Q01DX009 (ip), vehicle: saline) of the same compound?
The T/C was 93 % of control.

What about the T/C [13] of the same compound?
Its T/C is 92 % of control.

What about the T/C [1] of the same compound?
Its T/C is 93 % of control.

With `CC(=O)c1c(O)c(C)c(O)c2c1OC1=CC(=O)C(C(C)=O)C(=O)C12C` (stereo unspecified) as the compound, how does the T/C (dose: 50.0 mg/kg/injection, schedule: Q01DX009 (ip), vehicle: gum acacia) read?
The T/C was 89 % of control.

With `NC1(C(=O)O)CCCc2ccc(N(CCCl)CCCl)cc21` (stereo unspecified) as the compound, how does the T/C (dose: 2.5 mg/kg/injection, schedule: Q01DX009 (ip), vehicle: saline) read?
The T/C was 99 % of control.

What about the T/C (dose: 5.0 mg/kg/injection, schedule: Q01DX009 (ip), vehicle: saline) of the same compound?
Its T/C is 98 % of control.

What about the T/C (dose: 10.0 mg/kg/injection, schedule: Q01DX009 (ip), vehicle: saline with Tween-80) of the same compound?
Its T/C is 118 % of control.

What about the T/C (dose: 10.0 mg/kg/injection, schedule: Q01DX009 (ip), vehicle: saline) of the same compound?
The T/C was 109 % of control.

What about the T/C (dose: 20.0 mg/kg/injection, schedule: Q01DX009 (ip), vehicle: saline with Tween-80) of the same compound?
Its T/C is 108 % of control.

How did the T/C [5] turn out when `CN(Cc1cnc2nc(N)nc(N)c2n1)c1c(Cl)cc(C(=O)NC(CCC(=O)O)C(=O)O)cc1Cl` (stereo unspecified) was run?
Its T/C is 96 % of control.

And the T/C [11]?
The T/C was 93 % of control.

And the T/C [12]?
Its T/C is 98 % of control.

What does the source list for `O=C(/C=C(\Cl)C(=O)NO)NO`?
T/C [13]: 124 % of control; T/C [1]: 105 % of control; T/C [2]: 105 % of control; T/C (dose: 50.0 mg/kg/injection, schedule: Q01DX009 (ip), vehicle: saline): 110 % of control; T/C (dose: 100.0 mg/kg/injection, schedule: Q01DX009 (ip), vehicle: saline): 115 % of control; T/C (dose: 200.0 mg/kg/injection, schedule: Q01DX009 (ip), vehicle: saline): 104 % of control
